In patent US20230085307A1, “PYRIDAZINONE COMPOUND AND HERBICIDE” (NISSAN CHEMICAL CORPORATION, priority 2019, published 2023):

Assays:
persian speedwell [1] = experiment: Test Example 4: herbicidal effect by soil treatment (Table 19, symbol R); assay type: in vivo, Persian speedwell (Veronica persica); conditions: amount of applied herbicide 320 g/ha
In short: (§1)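 Pre-emergence style soil spray: seeds under ~1.5 cm sterilized diluvial soil received a uniform coat of emulsion diluted to the predetermined herbicide amount. Greenhouse 25–30° C; readout at week three on previously defined criteria.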

green foxtail [2] = experiment: Test Example 4: herbicidal effect by soil treatment (Table 19, symbol G); assay type: in vivo, green foxtail (Setaria viridis); conditions: amount of applied herbicide 320 g/ha
In short: as §1

Italian ryegrass [3] = experiment: Test Example 4: herbicidal effect by soil treatment (Table 19, symbol K); assay type: in vivo, Italian ryegrass (Lolium multiflorum); conditions: amount of applied herbicide 320 g/ha
In short: as §1

oval-leafed pondweed = experiment: Test Example 1: herbicidal activity, application before weed generation under submerged conditions (Table 16, symbol C); assay type: in vivo, oval-leafed pondweed (Monochoria vaginalis); conditions: amount of applied herbicide 320 g/ha
In short: (§2)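 Submerged Wagner pots (alluvial soil, 4 cm water) sown with weed seeds and planted with 2.5-leaf rice seedlings; emulsifiable concentrate diluted in water applied to water surface on sowing day. Held in greenhouse at 25-30 °C; injury scored 0-5 by herbicidal rate after three weeks.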

Chinese sprangletop = experiment: Test Example 3: herbicidal effect by foliage application, Wagner pot (Table 18, symbol D); assay type: in vivo, chinese sprangletop (Leptochloa chinensis); conditions: 320 g/ha
In short: (§3)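 Plants were sown in alluvial soil held under 0.1–0.5 cm standing water and grown 14 days in a greenhouse at 25–30 °C. An emulsifiable formulation, water-diluted to the set dose, was then sprayed onto the foliage, and effects were scored three weeks later using previously defined criteria.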

persian speedwell [4] = experiment: Test Example 5: herbicidal effect by foliage application, plastic box (Table 20, symbol R); assay type: in vivo, Persian speedwell (Veronica persica); conditions: 320 g/ha, foliage application after 14-day growth, evaluated three weeks after application
In short: (§4)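 Plants were sown into sterilized diluvial soil under about 1.5 cm cover and kept in a greenhouse at 25° C. to 30° C. Fourteen days on, foliage received an even spray of the diluted emulsion. Herbicidal or crop effect was judged three weeks afterwards.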

lambsquarters [5] = experiment: Test Example 4: herbicidal effect by soil treatment (Table 19, symbol O); assay type: in vivo, lambsquarters (Chenopodium album); conditions: amount of applied herbicide 320 g/ha
In short: as §1

late watergrass = experiment: Test Example 1: herbicidal activity, application before weed generation under submerged conditions (Table 16, symbol A); assay type: in vivo, late watergrass (Echinochloa oryzicola); conditions: amount of applied herbicide 320 g/ha
In short: as §2

green foxtail [6] = experiment: Test Example 5: herbicidal effect by foliage application, plastic box (Table 20, symbol G); assay type: in vivo, green foxtail (Setaria viridis); conditions: 320 g/ha, foliage application after 14-day growth, evaluated three weeks after application
In short: as §4

Japanese bulrush = experiment: Test Example 1: herbicidal activity, application before weed generation under submerged conditions (Table 16, symbol B); assay type: in vivo, Japanese bulrush (Schoenoplectus juncoides); conditions: amount of applied herbicide 320 g/ha
In short: as §2

wild oat [7] = experiment: Test Example 4: herbicidal effect by soil treatment (Table 19, symbol I); assay type: in vivo, wild oat (Avena fatua); conditions: amount of applied herbicide 320 g/ha
In short: as §1

chickweed [8] = experiment: Test Example 4: herbicidal effect by soil treatment (Table 19, symbol P); assay type: in vivo, common chickweed (Stellaria media); conditions: amount of applied herbicide 320 g/ha
In short: as §1

barnyard grass [9] = experiment: Test Example 4: herbicidal effect by soil treatment (Table 19, symbol H); assay type: in vivo, barnyard grass (Echinochloa crus-galli); conditions: amount of applied herbicide 320 g/ha
In short: as §1

barnyard grass [10] = experiment: Test Example 5: herbicidal effect by foliage application, plastic box (Table 20, symbol H); assay type: in vivo, barnyard grass (Echinochloa crus-galli); conditions: 320 g/ha, foliage application after 14-day growth, evaluated three weeks after application
In short: as §4

wild oat [11] = experiment: Test Example 5: herbicidal effect by foliage application, plastic box (Table 20, symbol I); assay type: in vivo, wild oat (Avena fatua); conditions: 320 g/ha, foliage application after 14-day growth, evaluated three weeks after application
In short: as §4

windgrass [12] = experiment: Test Example 4: herbicidal effect by soil treatment (Table 19, symbol L); assay type: in vivo, windgrass (Apera spica-venti); conditions: amount of applied herbicide 320 g/ha
In short: as §1

redroot pigweed [13] = experiment: Test Example 5: herbicidal effect by foliage application, plastic box (Table 20, symbol N); assay type: in vivo, redroot pigweed (Amaranthus retroflexus); conditions: 320 g/ha, foliage application after 14-day growth, evaluated three weeks after application
In short: as §4

Italian ryegrass [14] = experiment: Test Example 5: herbicidal effect by foliage application, plastic box (Table 20, symbol K); assay type: in vivo, Italian ryegrass (Lolium multiflorum); conditions: 320 g/ha, foliage application after 14-day growth, evaluated three weeks after application
In short: as §4

southern crabgrass [15] = experiment: Test Example 4: herbicidal effect by soil treatment (Table 19, symbol F); assay type: in vivo, southern crabgrass (Digitaria ciliaris); conditions: amount of applied herbicide 320 g/ha
In short: as §1

velvetleaf [16] = experiment: Test Example 4: herbicidal effect by soil treatment (Table 19, symbol M); assay type: in vivo, velvetleaf (Abutilon theophrasti); conditions: amount of applied herbicide 320 g/ha
In short: as §1

redroot pigweed [17] = experiment: Test Example 4: herbicidal effect by soil treatment (Table 19, symbol N); assay type: in vivo, redroot pigweed (Amaranthus retroflexus); conditions: amount of applied herbicide 320 g/ha
In short: as §1

lambsquarters [18] = experiment: Test Example 5: herbicidal effect by foliage application, plastic box (Table 20, symbol O); assay type: in vivo, lambsquarters (Chenopodium album); conditions: 320 g/ha, foliage application after 14-day growth, evaluated three weeks after application
In short: as §4

chickweed [19] = experiment: Test Example 5: herbicidal effect by foliage application, plastic box (Table 20, symbol P); assay type: in vivo, common chickweed (Stellaria media); conditions: 320 g/ha, foliage application after 14-day growth, evaluated three weeks after application
In short: as §4

rice flat sedge = experiment: Test Example 3: herbicidal effect by foliage application, Wagner pot (Table 18, symbol E); assay type: in vivo, rice flat sedge (Cyperus iria); conditions: 320 g/ha
In short: as §3

southern crabgrass [20] = experiment: Test Example 5: herbicidal effect by foliage application, plastic box (Table 20, symbol F); assay type: in vivo, southern crabgrass (Digitaria ciliaris); conditions: 320 g/ha, foliage application after 14-day growth, evaluated three weeks after application
In short: as §4

windgrass [21] = experiment: Test Example 5: herbicidal effect by foliage application, plastic box (Table 20, symbol L); assay type: in vivo, windgrass (Apera spica-venti); conditions: 320 g/ha, foliage application after 14-day growth, evaluated three weeks after application
In short: as §4

barnyard grass [22] = experiment: Test Example 3: herbicidal effect by foliage application, Wagner pot (Table 18, symbol H); assay type: in vivo, barnyard grass (Echinochloa crus-galli); conditions: 320 g/ha
In short: as §3

blackgrass [23] = experiment: Test Example 4: herbicidal effect by soil treatment (Table 19, symbol J); assay type: in vivo, blackgrass (Alopecurus myosuroides); conditions: amount of applied herbicide 320 g/ha
In short: as §1

velvetleaf [24] = experiment: Test Example 5: herbicidal effect by foliage application, plastic box (Table 20, symbol M); assay type: in vivo, velvetleaf (Abutilon theophrasti); conditions: 320 g/ha, foliage application after 14-day growth, evaluated three weeks after application
In short: as §4

blackgrass [25] = experiment: Test Example 5: herbicidal effect by foliage application, plastic box (Table 20, symbol J); assay type: in vivo, blackgrass (Alopecurus myosuroides); conditions: 320 g/ha, foliage application after 14-day growth, evaluated three weeks after application
In short: as §4

Compound | Herbicidal effect by soil treatment, R: persian speedwell (persian speedwell [1]) | Herbicidal effect by soil treatment, G: green foxtail (green foxtail [2]) | Herbicidal effect by soil treatment, K: Italian ryegrass (Italian ryegrass [3]) | Herbicidal effect, C: oval-leafed pondweed (oval-leafed pondweed) | herbicidal effect on Chinese sprangletop (D) (Chinese sprangletop) | herbicidal effect on R: persian speedwell (evaluation grade 0-5) (persian speedwell [4]) | Herbicidal effect by soil treatment, O: lambsquarters (lambsquarters [5]) | Herbicidal effect, A: late watergrass (late watergrass) | herbicidal effect on G: green foxtail (evaluation grade 0-5) (green foxtail [6]) | Herbicidal effect, B: Japanese bulrush (Japanese bulrush) | Herbicidal effect by soil treatment, I: wild oat (wild oat [7]) | Herbicidal effect by soil treatment, P: chickweed (chickweed [8]) | Herbicidal effect by soil treatment, H: barnyard grass (barnyard grass [9]) | herbicidal effect on H: barnyard grass (evaluation grade 0-5) (barnyard grass [10]) | herbicidal effect on I: wild oat (evaluation grade 0-5) (wild oat [11]) | Herbicidal effect by soil treatment, L: windgrass (windgrass [12]) | herbicidal effect on N: redroot pigweed (evaluation grade 0-5) (redroot pigweed [13]) | herbicidal effect on K: Italian ryegrass (evaluation grade 0-5) (Italian ryegrass [14]) | Herbicidal effect by soil treatment, F: southern crabgrass (southern crabgrass [15]) | Herbicidal effect by soil treatment, M: velvetleaf (velvetleaf [16]) | other results
COc1ccc2c(-c3c(O)c(C)nn(C)c3=O)c(-c3ccc(OC(F)F)cc3)sc2c1 [3-159] | 3 (Herbicidal rate of 40% or more and less than 70%) | 0 (Herbicidal rate of 5% or less (almost no effect)) | 0 (Herbicidal rate of 5% or less (almost no effect)) | 3 (Herbicidal rate of 40% or more and less than 70%) | 0 (Herbicidal rate of 5% or less (almost no effect)) | 5 (Herbicidal rate of 90% or more (almost completely withered)) | 4 (Herbicidal rate of 70% or more and less than 90%) | 0 (Herbicidal rate of 5% or less (almost no effect)) | 0 (Herbicidal rate of 5% or less (almost no effect)) | 3 (Herbicidal rate of 40% or more and less than 70%) | 0 (Herbicidal rate of 5% or less (almost no effect)) | 0 (Herbicidal rate of 5% or less (almost no effect)) | 0 (Herbicidal rate of 5% or less (almost no effect)) | 0 (Herbicidal rate of 5% or less (almost no effect)) | 0 (Herbicidal rate of 5% or less (almost no effect)) | 0 (Herbicidal rate of 5% or less (almost no effect)) | 5 (Herbicidal rate of 90% or more (almost completely withered)) | 4 (Herbicidal rate of 70% or more and less than 90%) | 0 (Herbicidal rate of 5% or less (almost no effect)) | 1 (Herbicidal rate of 5% or more and less than 20%) | Herbicidal effect by soil treatment, N: redroot pigweed (redroot pigweed [17]): 4 (Herbicidal rate of 70% or more and less than 90%); herbicidal effect on O: lambsquarters (evaluation grade 0-5) (lambsquarters [18]): 5 (Herbicidal rate of 90% or more (almost completely withered)); herbicidal effect on P: chickweed (evaluation grade 0-5) (chickweed [19]): 5 (Herbicidal rate of 90% or more (almost completely withered)); herbicidal effect on rice flat sedge (E) (rice flat sedge): 3 (Herbicidal rate of 40% or more and less than 70%); herbicidal effect on F: southern crabgrass (evaluation grade 0-5) (southern crabgrass [20]): 0 (Herbicidal rate of 5% or less (almost no effect)); herbicidal effect on L: windgrass (evaluation grade 0-5) (windgrass [21]): 0 (Herbicidal rate of 5% or less (almost no effect)); herbicidal effect on barnyard grass (H) (barnyard grass [22]): 2 (Herbicidal rate of 20% or more and less than 40%); Herbicidal effect by soil treatment, J: blackgrass (blackgrass [23]): 0 (Herbicidal rate of 5% or less (almost no effect)); herbicidal effect on M: velvetleaf (evaluation grade 0-5) (velvetleaf [24]): 4 (Herbicidal rate of 70% or more and less than 90%); herbicidal effect on J: blackgrass (evaluation grade 0-5) (blackgrass [25]): 3 (Herbicidal rate of 40% or more and less than 70%)
CCCC(=O)Oc1c(C)nn(C)c(=O)c1-c1c(-c2ccccc2OCC)sc2c(F)cccc12 [4-008] | 0 (Herbicidal rate of 5% or less (almost no effect)) | 3 (Herbicidal rate of 40% or more and less than 70%) | 0 (Herbicidal rate of 5% or less (almost no effect)) | 0 (Herbicidal rate of 5% or less (almost no effect)) | 3 (Herbicidal rate of 40% or more and less than 70%) | 4 (Herbicidal rate of 70% or more and less than 90%) | 2 (Herbicidal rate of 20% or more and less than 40%) | 3 (Herbicidal rate of 40% or more and less than 70%) | 5 (Herbicidal rate of 90% or more (almost completely withered)) | 3 (Herbicidal rate of 40% or more and less than 70%) | 0 (Herbicidal rate of 5% or less (almost no effect)) | 1 (Herbicidal rate of 5% or more and less than 20%) | 3 (Herbicidal rate of 40% or more and less than 70%) | 4 (Herbicidal rate of 70% or more and less than 90%) | 0 (Herbicidal rate of 5% or less (almost no effect)) | 0 (Herbicidal rate of 5% or less (almost no effect)) | 5 (Herbicidal rate of 90% or more (almost completely withered)) | 0 (Herbicidal rate of 5% or less (almost no effect)) | 2 (Herbicidal rate of 20% or more and less than 40%) | 1 (Herbicidal rate of 5% or more and less than 20%) | Herbicidal effect by soil treatment, N: redroot pigweed (redroot pigweed [17]): 2 (Herbicidal rate of 20% or more and less than 40%); herbicidal effect on O: lambsquarters (evaluation grade 0-5) (lambsquarters [18]): 3 (Herbicidal rate of 40% or more and less than 70%); herbicidal effect on P: chickweed (evaluation grade 0-5) (chickweed [19]): 5 (Herbicidal rate of 90% or more (almost completely withered)); herbicidal effect on rice flat sedge (E) (rice flat sedge): 5 (Herbicidal rate of 90% or more (almost completely withered)); herbicidal effect on F: southern crabgrass (evaluation grade 0-5) (southern crabgrass [20]): 4 (Herbicidal rate of 70% or more and less than 90%); herbicidal effect on L: windgrass (evaluation grade 0-5) (windgrass [21]): 5 (Herbicidal rate of 90% or more (almost completely withered)); herbicidal effect on barnyard grass (H) (barnyard grass [22]): 5 (Herbicidal rate of 90% or more (almost completely withered)); Herbicidal effect by soil treatment, J: blackgrass (blackgrass [23]): 0 (Herbicidal rate of 5% or less (almost no effect)); herbicidal effect on M: velvetleaf (evaluation grade 0-5) (velvetleaf [24]): 4 (Herbicidal rate of 70% or more and less than 90%); herbicidal effect on J: blackgrass (evaluation grade 0-5) (blackgrass [25]): 3 (Herbicidal rate of 40% or more and less than 70%)
